Reference: patent US6620828B2, “Thiazole compounds and pharmaceutical compositions for inhibiting protein kinases and methods for their use” (Agouron Pharmaceuticals, Inc., priority 1999, dated 2003)
Where two headings read alike, the source gives them in different places.

Test system: human umbilical vein endothelial cells (HUVEC)
Experiment: HUVEC proliferation assay
Format: cell-based
Settings: Homo sapiens, HUVEC; for inhibition at 0.001 µM: 1 nM; for inhibition at 0.01 µM: 10 nM, read-out: % inhibition @ 10 nM
Method in brief: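 Readout was MTT dye reduction (A595) after 72 h of stimulation with VEGF at 6 ng/ml final. Compound, in 0.1% DMSO final, was added 1 h before VEGF to HUVEC starved 24 h in 1% FBS. % inhibition was scaled between VEGF-alone and unstimulated wells; IC50 was fitted from triplicate dose curves.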

[1] = Table II screening results, crude combinatorial amide library
[2] = table following Table II (untitled), crude combinatorial library

Row | Structure (SMILES) | inhibition at 0.001 µM [1] | inhibition at 0.01 µM [1] | inhibition at 0.001 µM [2] | inhibition at 0.01 µM [2]
1 | CNC(=O)Nc1nc(N)c(-c2nc(-c3cccc(NC(=O)c4cc(=O)[nH]c(=O)[nH]4)c3)cs2)s1 | -5% | -14% |  | 
2 | CNC(=O)Nc1nc(N)c(-c2nc(-c3cccc(NC(=O)C4CCCO4)c3)cs2)s1 (centres unmarked) | 183% | -33% |  | 
3 | CNC(=O)Nc1nc(N)c(-c2nc(-c3cccc(NC(=O)C(=O)CC(C)C)c3)cs2)s1 | 3% | 11% |  | 
4 | CNC(=O)Nc1nc(N)c(-c2nc(-c3cccc(NC(=O)C4CCCC(OC)C4)c3)cs2)s1 (centres unmarked) | 6% | 5% |  | 
5 | CNC(=O)Nc1nc(N)c(-c2nc(-c3cccc(NC(=O)C4(c5ccc(C)cc5)CC4)c3)cs2)s1 | -8% | -6% |  | 
6 | CNC(=O)Nc1nc(N)c(-c2nc(-c3cccc(NC(=O)Cc4sc(S)nc4C)c3)cs2)s1 | 18% | -25% |  | 
7 | CNC(=O)Nc1nc(N)c(-c2nc(-c3cccc(NC(=O)c4cc(C)n(O)n4)c3)cs2)s1 | -2% | 13% |  | 
8 | CNC(=O)Nc1nc(N)c(-c2nc(-c3cccc(NC(=O)C4CC(=O)OC4(C)C)c3)cs2)s1 (centres unmarked) | 2% | -10% |  | 
9 | CNC(=O)Nc1nc(N)c(-c2nc(-c3cccc(NC(=O)c4cc(C)n[nH]4)c3)cs2)s1 | 32% | -22% |  | 
10 | CNC(=O)Nc1nc(N)c(-c2nc(-c3cccc(NC(=O)c4cc(C)nn4C)c3)cs2)s1 | 10% | 39% |  | 
11 | CNC(=O)Nc1nc(N)c(-c2nc(-c3cccc(NC(=O)c4cc(C)[nH]c4C)c3)cs2)s1 | 25% | -13% |  | 
12 | CNC(=O)Nc1nc(N)c(-c2nc(-c3cccc(NC(=O)c4cccc5cc[nH]c45)c3)cs2)s1 | -11% | 60% |  | 
13 | C/C=C(\C)C(=O)Nc1cccc(-c2csc(-c3sc(NC(=O)NC)nc3N)n2)c1 | 5% | 17% |  | 
14 | CNC(=O)Nc1nc(N)c(-c2nc(-c3cccc(NC(=O)c4cc(=O)cco4)c3)cs2)s1 | 47% | 27% |  | 
15 | CCCN(CCC)CC(=O)Nc1cccc(-c2csc(-c3sc(NC(=O)NC)nc3N)n2)c1 | 10% | 0% |  | 
16 | CC/C=C(\C)C(=O)Nc1cccc(-c2csc(-c3sc(NC(=O)NC)nc3N)n2)c1 | -12% | 67% |  | 
17 | CNC(=O)Nc1nc(N)c(-c2nc(-c3cccc(NC(=O)Cc4c(F)cccc4F)c3)cs2)s1 | -3% | -2% |  | 
18 | CNC(=O)Nc1nc(N)c(-c2nc(-c3cccc(NC(=O)C4C(C)(C)C4(C)C)c3)cs2)s1 | 11% | 21% |  | 
19 | CCNc1ccccc1C(=O)Nc1cccc(-c2csc(-c3sc(NC(=O)NC)nc3N)n2)c1 | -1% | 29% |  | 
20 | COc1cc(Nc2nc(N)c(-c3nc(-c4cc(NC(=O)CC5CCC6CCC5C6)ccc4C)no3)s2)cc(OC)c1OC (centres unmarked) |  |  | -7% | 47%

Row | Structure (SMILES) | inhibition at 0.001 µM [1] | inhibition at 0.01 µM [1] | inhibition at 0.001 µM [2] | inhibition at 0.01 µM [2]
21 | COc1cc(Nc2nc(N)c(-c3nc(-c4cc(NC(=O)CCN5CCCCC5)ccc4C)no3)s2)cc(OC)c1OC |  |  | 3% | 28%
22 | COc1cc(Nc2nc(N)c(-c3nc(-c4cc(NC(=O)C(C)C)ccc4C)no3)s2)cc(OC)c1OC |  |  | 6% | 1%
23 | COc1cc(Nc2nc(N)c(-c3nc(-c4cc(NC(=O)C(O)CC(C)C)ccc4C)no3)s2)cc(OC)c1OC (centres unmarked) |  |  | 5% | 69%
24 | COc1cc(Nc2nc(N)c(-c3nc(-c4cc(NC(=O)CCC(=O)N5CCCC5)ccc4C)no3)s2)cc(OC)c1OC |  |  | -18% | -20%
25 | CCc1ccccc1C(=O)Nc1ccc(C)c(-c2noc(-c3sc(Nc4cc(OC)c(OC)c(OC)c4)nc3N)n2)c1 |  |  | -26% | 59%
26 | COc1cc(Nc2nc(N)c(-c3nc(-c4cc(NC(=O)C5=CCCN(C)C5)ccc4C)no3)s2)cc(OC)c1OC |  |  | 5% | 1%
27 | COc1cc(Nc2nc(N)c(-c3nc(-c4cc(NC(=O)C5CCCN5C(C)=O)ccc4C)no3)s2)cc(OC)c1OC (centres unmarked) |  |  | -13% | -24%
28 | COc1cc(Nc2nc(N)c(-c3nc(-c4cc(NC(=O)/C=C/C5CC[C@H]6C=C[C@@H]5C6)ccc4C)no3)s2)cc(OC)c1OC (some centres unmarked) |  |  | -12% | 25%
29 | CCC(C(=O)Nc1ccc(C)c(-c2noc(-c3sc(Nc4cc(OC)c(OC)c(OC)c4)nc3N)n2)c1)c1ccccc1C (centres unmarked) |  |  | -14% | 13%
30 | COc1cc(Nc2nc(N)c(-c3nc(-c4cc(NC(=O)C[C@@H]5OC(C)(C)OC5=O)ccc4C)no3)s2)cc(OC)c1OC |  |  | -2% | 3%
31 | COc1cc(Nc2nc(N)c(-c3nc(-c4cc(NC(=O)c5ccc(C(C)(C)C)o5)ccc4C)no3)s2)cc(OC)c1OC |  |  | -9% | 48%
32 | COc1cc(Nc2nc(N)c(-c3nc(-c4cc(NC(=O)/C=C(\C)c5ccccc5C)ccc4C)no3)s2)cc(OC)c1OC |  |  | -27% | 8%
33 | COc1cc(Nc2nc(N)c(-c3nc(-c4cc(NC(=O)c5ccc(C(C)=O)s5)ccc4C)no3)s2)cc(OC)c1OC |  |  | 35% | 93%
34 | COc1cc(Nc2nc(N)c(-c3nc(-c4cc(NC(=O)C(C)OC=C(C)C)ccc4C)no3)s2)cc(OC)c1OC (centres unmarked) |  |  | -21% | 11%
35 | COc1cc(Nc2nc(N)c(-c3nc(-c4cc(NC(=O)/C=C/C(=O)NCC5CC5)ccc4C)no3)s2)cc(OC)c1OC |  |  | 39% | 5%
36 | COc1ccc(C#N)c(C(=O)Nc2ccc(C)c(-c3noc(-c4sc(Nc5cc(OC)c(OC)c(OC)c5)nc4N)n3)c2)c1 |  |  | 9% | 1%
37 | COc1cc(Nc2nc(N)c(-c3nc(-c4cc(NC(=O)c5cc(C)cc(=O)o5)ccc4C)no3)s2)cc(OC)c1OC |  |  | -2% | 66%
38 | COc1cc(Nc2nc(N)c(-c3nc(-c4cc(NC(=O)Cc5cn(C)cn5)ccc4C)no3)s2)cc(OC)c1OC |  |  | -7% | -14%
39 | COc1cc(Nc2nc(N)c(-c3nc(-c4cc(NC(=O)CC(C)(C)NC(C)=O)ccc4C)no3)s2)cc(OC)c1OC |  |  | 2% | -11%
40 | CCO/C(C)=C/C(=O)Nc1ccc(C)c(-c2noc(-c3sc(Nc4cc(OC)c(OC)c(OC)c4)nc3N)n2)c1 |  |  | 21% | 78%

Row | Structure (SMILES) | inhibition at 0.001 µM [1] | inhibition at 0.01 µM [1] | inhibition at 0.001 µM [2] | inhibition at 0.01 µM [2]
41 | COc1cc(Nc2nc(N)c(-c3nc(-c4cc(NC(=O)[C@H]5C[C@@H](C)[C@@H](C)[C@H]5C)ccc4C)no3)s2)cc(OC)c1OC |  |  | -21% | 5%
42 | C/C=C/C(=O)Nc1ccc(C)c(-c2noc(-c3sc(Nc4cc(OC)c(OC)c(OC)c4)nc3N)n2)c1 |  |  | 9% | 65%
43 | COc1cc(Nc2nc(N)c(-c3nc(-c4cc(NC(=O)C[C@H](C)c5ccccc5)ccc4C)no3)s2)cc(OC)c1OC |  |  | -30% | 24%
44 | COc1cc(Nc2nc(N)c(-c3nc(-c4cc(NC(=O)CC5=CCCCC5)ccc4C)no3)s2)cc(OC)c1OC |  |  | -12% | 43%
45 | COc1cc(Nc2nc(N)c(-c3nc(-c4cc(NC(=O)C(=O)C5=CCCCC5)ccc4C)no3)s2)cc(OC)c1OC |  |  | -36% | 11%
46 | COc1cc(Nc2nc(N)c(-c3nc(-c4cc(NC(=O)C5CNC(=O)N5)ccc4C)no3)s2)cc(OC)c1OC (centres unmarked) |  |  | -43% | -7%
47 | COc1cc(Nc2nc(N)c(-c3nc(-c4cc(NC(=O)C5CC5C)ccc4C)no3)s2)cc(OC)c1OC (centres unmarked) |  |  | 24% | 6%
48 | COc1cc(Nc2nc(N)c(-c3nc(-c4cc(NC(=O)c5cc(F)ccc5C)ccc4C)no3)s2)cc(OC)c1OC |  |  | 29% | 64%
49 | COc1cc(Nc2nc(N)c(-c3nc(-c4cc(NC(=O)C5CCSCN5C)ccc4C)no3)s2)cc(OC)c1OC (centres unmarked) |  |  | 14% | 29%
50 | COc1cc(Nc2nc(N)c(-c3nc(-c4cc(NC(=O)[C@H]5CCC[C@H]5O)ccc4C)no3)s2)cc(OC)c1OC |  |  | 45% | 9%
51 | COc1cc(Nc2nc(N)c(-c3nc(-c4cc(NC(=O)C5CCC(=O)CC5)ccc4C)no3)s2)cc(OC)c1OC |  |  | 23% | -24%
52 | COc1cc(Nc2nc(N)c(-c3nc(-c4cc(NC(=O)c5ccccc5C(C)C)ccc4C)no3)s2)cc(OC)c1OC |  |  | 6% | 11%
53 | COc1cc(Nc2nc(N)c(-c3nc(-c4cc(NC(=O)[C@H](C)C(C)C)ccc4C)no3)s2)cc(OC)c1OC |  |  | -8% | -18%
54 | CCn1nc(C)cc1C(=O)Nc1ccc(C)c(-c2noc(-c3sc(Nc4cc(OC)c(OC)c(OC)c4)nc3N)n2)c1 |  |  | -4% | 44%
55 | COc1cc(Nc2nc(N)c(-c3nc(-c4cc(NC(=O)[C@H](O)C(C)(C)C)ccc4C)no3)s2)cc(OC)c1OC |  |  | -34% | -11%
56 | COc1cc(Nc2nc(N)c(-c3nc(-c4cc(NC(=O)C5CC(=O)N(C)C5)ccc4C)no3)s2)cc(OC)c1OC (centres unmarked) |  |  | 16% | -18%
57 | COc1cc(Nc2nc(N)c(-c3nc(-c4cc(NC(=O)[C@@H](OC)c5ccccc5)ccc4C)no3)s2)cc(OC)c1OC |  |  | -11% | 63%
58 | COc1ccccc1/C=C/C(=O)Nc1ccc(C)c(-c2noc(-c3sc(Nc4cc(OC)c(OC)c(OC)c4)nc3N)n2)c1 |  |  | 13% | 31%
